# Assay results published in ChEMBL document CHEMBL1201862, “PubChem BioAssay data set” (2004).
#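 Five concentrations, 48 hours, 96-well plates. The concentration for 50% growth inhibition is given as GI50.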 Active and inactive are the calls of the source. Rule as the data show it: active = GI50 up to about 1.1 µM and inactive = higher.
# Tests used:
# Assay in all cases: growth of human tumour cells (NCI), 48 h
# MDA-MB-231 = test system: MDA-MB-231
# PC-3 = test system: PC-3
# SN12C = test system: SN12C
# OVCAR-3 = test system: OVCAR-3
# SK-OV-3 = test system: SK-OV-3
# U-251 = test system: U-251
# DU-145 = test system: DU-145
# T47D = test system: T47D
# NCI-H23 = test system: NCI-H23
# MDA-MB-435 = test system: MDA-MB-435
# NCI-H522 = test system: NCI-H522
# KM12 = test system: KM12
# NCI-H460 = test system: NCI-H460
# 786-0 = test system: 786-0
# HCC 2998 = test system: HCC 2998
# SR = test system: SR
# Hs-578T = test system: Hs-578T
# ACHN = test system: ACHN
# CAKI-1 = test system: CAKI-1
# HCT-116 = test system: HCT-116
# CCRF-CEM = test system: CCRF-CEM
# HT-29 = test system: HT-29
# UACC-62 = test system: UACC-62
# HCT-15 = test system: HCT-15
# A498 = test system: A498
# MCF7 = test system: MCF7
# SW-620 = test system: SW-620
# HL-60 = test system: HL-60
# LOX IMVI = test system: LOX IMVI
# SK-MEL-28 = test system: SK-MEL-28
# SNB-19 = test system: SNB-19
# RXF 393 = test system: RXF 393
# MOLT-4 = test system: MOLT-4
# K562 = test system: K562
# SF-295 = test system: SF-295
# SF-268 = test system: SF-268
# SNB-75 = test system: SNB-75
# A549 = test system: A549
# HOP-92 = test system: HOP-92
# IGROV-1 = test system: IGROV-1
# COLO 205 = test system: COLO 205
# OVCAR-5 = test system: OVCAR-5
# NCI-H226 = test system: NCI-H226
# OVCAR-8 = test system: OVCAR-8
# M14 = test system: M14
# SF-539 = test system: SF-539
# UACC-257 = test system: UACC-257
# RPMI-8226 = test system: RPMI-8226
# UO-31 = test system: UO-31
# HOP-62 = test system: HOP-62
# NCI/ADR-RES = test system: NCI/ADR-RES
# OVCAR-4 = test system: OVCAR-4
# TK-10 = test system: TK-10
# BT-549 = test system: BT-549
# MDA-N = test system: MDA-N
# Malme-3M = test system: Malme-3M
# EKVX = test system: EKVX
# SK-MEL-2 = test system: SK-MEL-2
# SK-MEL-5 = test system: SK-MEL-5
smiles,measurement,setting,value
CC(=O)CC12NC(=O)N(C)N=C1N(C)C(=O)N(C)C2=O (stereo not given),GI50,MDA-MB-231,43 µM (inactive)
same,GI50,PC-3,30.8 µM (inactive)
same,GI50,SN12C,33.1 µM (inactive)
same,GI50,OVCAR-3,34.8 µM (inactive)
same,GI50,SK-OV-3,> 100 µM (inactive)
same,GI50,U-251,34.4 µM (inactive)
same,GI50,DU-145,> 100 µM (inactive)
same,GI50,T47D,30.8 µM (inactive)
same,GI50,NCI-H23,38.7 µM (inactive)
same,GI50,MDA-MB-435,17 µM (inactive)
same,GI50,NCI-H522,37.7 µM (inactive)
same,GI50,KM12,52.8 µM (inactive)
same,GI50,NCI-H460,65.9 µM (inactive)
same,GI50,786-0,91 µM (inactive)
same,GI50,HCC 2998,82.8 µM (inactive)
same,GI50,SR,63.7 µM (inactive)
same,GI50,Hs-578T,> 100 µM (inactive)
same,GI50,ACHN,74.6 µM (inactive)
same,GI50,CAKI-1,> 100 µM (inactive)
same,GI50,HCT-116,35.7 µM (inactive)
same,GI50,CCRF-CEM,39.2 µM (inactive)
same,GI50,HT-29,35.9 µM (inactive)
same,GI50,UACC-62,23.9 µM (inactive)
same,GI50,HCT-15,57.7 µM
same,GI50,A498,31.9 µM (inactive)
same,GI50,MCF7,41.8 µM (inactive)
same,GI50,SW-620,33.9 µM (inactive)
same,GI50,HL-60,25.9 µM (inactive)
same,GI50,LOX IMVI,19.8 µM (inactive)
same,GI50,SK-MEL-28,57.3 µM (inactive)
same,GI50,SNB-19,> 10 µM (inactive)
same,GI50,RXF 393,68.1 µM (inactive)
same,GI50,MOLT-4,44.8 µM (inactive)
same,GI50,K562,40.1 µM (inactive)
same,GI50,SF-295,27.4 µM (inactive)
same,GI50,SF-268,78.2 µM (inactive)
same,GI50,SNB-75,68.1 µM (inactive)
same,GI50,A549,> 100 µM (inactive)
same,GI50,HOP-92,95.1 µM (inactive)
same,GI50,IGROV-1,> 100 µM (inactive)
same,GI50,COLO 205,52.4 µM (inactive)
same,GI50,OVCAR-5,> 100 µM (inactive)
same,GI50,NCI-H226,> 100 µM (inactive)
same,GI50,OVCAR-8,32.1 µM (inactive)
same,GI50,M14,73.5 µM (inactive)
same,GI50,SF-539,25.7 µM (inactive)
same,GI50,UACC-257,18.6 µM (inactive)
same,GI50,RPMI-8226,58.1 µM (inactive)
same,GI50,UO-31,> 100 µM (inactive)
same,GI50,HOP-62,51.6 µM (inactive)
same,GI50,NCI/ADR-RES,29.4 µM (inactive)
same,GI50,OVCAR-4,71.8 µM (inactive)
same,GI50,TK-10,> 100 µM (inactive)
same,GI50,BT-549,> 100 µM (inactive)
same,GI50,MDA-N,22.3 µM (inactive)
same,GI50,Malme-3M,13.4 µM (inactive)
same,GI50,EKVX,> 100 µM (inactive)
C=CCOc1ccc(C2c3c(n[nH]c3O)CC(C)(O)C2C(=O)OC)cc1OC (stereo not given),GI50,MDA-MB-231,> 100 µM (inactive)
same,GI50,PC-3,> 100 µM (inactive)
same,GI50,SN12C,> 100 µM (inactive)
same,GI50,OVCAR-3,> 100 µM (inactive)
same,GI50,U-251,> 100 µM (inactive)
same,GI50,DU-145,> 100 µM (inactive)
same,GI50,T47D,> 100 µM (inactive)
same,GI50,NCI-H23,> 100 µM (inactive)
same,GI50,MDA-MB-435,> 100 µM (inactive)
same,GI50,NCI-H522,> 100 µM (inactive)
same,GI50,KM12,> 100 µM (inactive)
same,GI50,SK-MEL-2,> 100 µM (inactive)
same,GI50,NCI-H460,> 100 µM (inactive)
same,GI50,786-0,> 100 µM (inactive)
same,GI50,HCC 2998,> 100 µM (inactive)
same,GI50,SR,> 100 µM (inactive)
same,GI50,Hs-578T,> 100 µM (inactive)
same,GI50,ACHN,> 100 µM (inactive)
same,GI50,CAKI-1,> 100 µM (inactive)
same,GI50,HCT-116,> 100 µM (inactive)
same,GI50,CCRF-CEM,> 100 µM (inactive)
same,GI50,HT-29,> 100 µM (inactive)
same,GI50,UACC-62,> 100 µM (inactive)
same,GI50,HCT-15,> 100 µM
same,GI50,A498,> 100 µM (inactive)
same,GI50,MCF7,> 100 µM (inactive)
same,GI50,SW-620,> 100 µM (inactive)
same,GI50,HL-60,> 100 µM (inactive)
same,GI50,LOX IMVI,> 100 µM (inactive)
same,GI50,SK-MEL-28,> 100 µM (inactive)
same,GI50,SK-MEL-5,> 100 µM (inactive)
same,GI50,SNB-19,> 100 µM (inactive)
same,GI50,MOLT-4,> 100 µM (inactive)
same,GI50,SF-295,> 100 µM (inactive)
same,GI50,SF-268,> 100 µM (inactive)
same,GI50,SNB-75,> 100 µM (inactive)
same,GI50,A549,> 100 µM (inactive)
same,GI50,HOP-92,> 100 µM (inactive)
same,GI50,IGROV-1,> 100 µM (inactive)
same,GI50,COLO 205,> 100 µM (inactive)
same,GI50,OVCAR-5,> 100 µM (inactive)
same,GI50,OVCAR-8,> 100 µM (inactive)
same,GI50,M14,> 100 µM (inactive)
same,GI50,SF-539,> 100 µM (inactive)
same,GI50,UACC-257,> 100 µM (inactive)
same,GI50,RPMI-8226,> 100 µM (inactive)
same,GI50,UO-31,> 100 µM (inactive)
same,GI50,HOP-62,> 100 µM (inactive)
same,GI50,NCI/ADR-RES,> 100 µM (inactive)
same,GI50,OVCAR-4,> 100 µM (inactive)
same,GI50,TK-10,> 100 µM (inactive)
same,GI50,BT-549,> 100 µM (inactive)
same,GI50,MDA-N,> 100 µM (inactive)
same,GI50,Malme-3M,> 100 µM (inactive)
same,GI50,EKVX,> 100 µM (inactive)
COC(=O)C1CCC(=O)N1C(c1ccc(OC)cc1)c1ccc2c(c1)OCO2 (stereo not given),GI50,MDA-MB-231,> 100 µM (inactive)
same,GI50,PC-3,45.3 µM (inactive)
same,GI50,SN12C,57.9 µM (inactive)
same,GI50,OVCAR-3,50.8 µM (inactive)
same,GI50,SK-OV-3,59.4 µM (inactive)
same,GI50,U-251,39.4 µM (inactive)
same,GI50,DU-145,> 100 µM (inactive)
same,GI50,T47D,> 100 µM (inactive)
same,GI50,NCI-H23,82.8 µM (inactive)
same,GI50,MDA-MB-435,7.01 µM (inactive)
same,GI50,NCI-H522,22.4 µM (inactive)
same,GI50,KM12,9.46 µM (inactive)
same,GI50,SK-MEL-2,43.7 µM (inactive)
same,GI50,NCI-H460,40.4 µM (inactive)
same,GI50,786-0,62.8 µM (inactive)
same,GI50,HCC 2998,28.7 µM (inactive)
same,GI50,SR,31 µM (inactive)
same,GI50,Hs-578T,36.2 µM (inactive)
same,GI50,ACHN,97.9 µM (inactive)
same,GI50,CAKI-1,62.8 µM (inactive)
same,GI50,HCT-116,29 µM (inactive)
same,GI50,CCRF-CEM,43.1 µM (inactive)
same,GI50,HT-29,34.9 µM (inactive)
same,GI50,UACC-62,32.7 µM (inactive)
same,GI50,HCT-15,32.3 µM
same,GI50,A498,58.6 µM (inactive)
same,GI50,MCF7,36.7 µM (inactive)
same,GI50,SW-620,33.5 µM (inactive)
same,GI50,HL-60,21.2 µM (inactive)
same,GI50,LOX IMVI,50.4 µM (inactive)
same,GI50,SK-MEL-28,57.1 µM (inactive)
same,GI50,SK-MEL-5,24.7 µM (inactive)
same,GI50,SNB-19,37.2 µM (inactive)
same,GI50,MOLT-4,36.3 µM (inactive)
same,GI50,K562,23.4 µM (inactive)
same,GI50,SF-295,17 µM (inactive)
same,GI50,SF-268,53.6 µM (inactive)
same,GI50,SNB-75,20.2 µM (inactive)
same,GI50,A549,47.5 µM (inactive)
same,GI50,HOP-92,> 100 µM (inactive)
same,GI50,IGROV-1,52 µM (inactive)
same,GI50,COLO 205,37.9 µM (inactive)
same,GI50,OVCAR-5,50 µM (inactive)
same,GI50,NCI-H226,67.3 µM (inactive)
same,GI50,OVCAR-8,48.9 µM (inactive)
same,GI50,M14,28.5 µM (inactive)
same,GI50,SF-539,32.9 µM (inactive)
same,GI50,UACC-257,39.1 µM (inactive)
same,GI50,RPMI-8226,43.3 µM (inactive)
same,GI50,UO-31,27.5 µM (inactive)
same,GI50,HOP-62,53.2 µM (inactive)
same,GI50,NCI/ADR-RES,33.3 µM (inactive)
same,GI50,OVCAR-4,> 100 µM (inactive)
same,GI50,TK-10,> 100 µM (inactive)
same,GI50,BT-549,89.7 µM (inactive)
same,GI50,MDA-N,7.46 µM (inactive)
same,GI50,Malme-3M,45.5 µM (inactive)
same,GI50,EKVX,> 100 µM (inactive)
